Laboratory results reported in patent US20140315936A1, “AP[…] PI COMBINATION THERAPY” (AVEXA LIMITED, priority 2011, published 2014).
Like-named read-outs stand apart in the source and are kept apart here.

Test system: HIV-1
Conditions: as part of an optimized regimen, plasma HIV-1 RNA
Experimental: Groups of HIV-1 positive patients were treated (as part of an optimized regimen) with ATC+either LPV or ATV, and compared to patients treated with 3TC+either LPV or ATV. Samples were taken after therapy to determine the number of patients who achieved an undetectable plasma HIV-1 RNA level (<50 copies/mL).

SMILES | Patients achieving <50 copies/mL, % (combined with 150 mg BID 3TC) | Patients achieving <50 copies/mL, n/N (combined with 150 mg BID 3TC) | Patients achieving <50 copies/mL, % (combined with 800 mg BID ATC) | Patients achieving <50 copies/mL, n/N (combined with 800 mg BID ATC)
COC(=O)N[C@H](C(=O)N[C@@H](Cc1ccccc1)[C@@H](O)CN(Cc1ccc(-c2ccccn2)cc1)NC(=O)[C@@H](NC(=O)OC)C(C)(C)C)C(C)(C)C [ATV, methyl N-[(1S)-1-{[(2S,3S)-3-hydroxy-4-[(2S)-2-[(methoxycarbonyl)amino]-3,3-dimethyl-N′-{[4-(pyridin-2-yl)phenyl]methyl}butanehydrazido]-1-phenylbutan-2-yl]carbamoyl}-2,2-dimethylpropyl]carbamate] | 42.9% | 6/14 | 66.7% | 8/12
Cc1cccc(C)c1OCC(=O)N[C@@H](Cc1ccccc1)[C@@H](O)C[C@H](Cc1ccccc1)NC(=O)[C@H](C(C)C)N1CCCNC1=O [LPV, Lopinavir] | 62% | 18/29 | 60% | 18/30
